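All cell lines were grown in 96-well plates and treated with compound for 48 hours. The concentration for full growth arrest is given as TGI.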
Columns and labels:
Assay in all cases: inhibition of tumour cell growth, NCI panel, 48 h
OVCAR-5 ovarian = tested on: OVCAR-5 ovarian
OVCAR-4 ovarian = tested on: OVCAR-4 ovarian
ACHN renal = tested on: ACHN renal
LXFL 529 NSCLC = tested on: LXFL 529 NSCLC
RXF-631 renal = tested on: RXF-631 renal
A549 NSCLC = tested on: A549 NSCLC
DMS 273 small cell lung = tested on: DMS 273 small cell lung
SNB-78 CNS = tested on: SNB-78 CNS
HCT-15 colon = tested on: HCT-15 colon
EKVX NSCLC = tested on: EKVX NSCLC
SN12C renal = tested on: SN12C renal
U251 CNS = tested on: U251 CNS
SR leukemia = tested on: SR leukemia
MOLT-4 leukemia = tested on: MOLT-4 leukemia
NCI-H460 lung = tested on: NCI-H460 lung
SK-MEL-5 melanoma = tested on: SK-MEL-5 melanoma
NCI-H23 lung = tested on: NCI-H23 lung
HT29 colon = tested on: HT29 colon
DLD-1 colon = tested on: DLD-1 colon
786-0 renal = tested on: 786-0 renal
SNB-19 CNS = tested on: SNB-19 CNS
HOP-92 NSCLC = tested on: HOP-92 NSCLC
COLO 205 colon = tested on: COLO 205 colon
CAKI-1 renal = tested on: CAKI-1 renal
KM20L2 colon = tested on: KM20L2 colon
SK-MEL-2 melanoma = tested on: SK-MEL-2 melanoma
SF-295 CNS = tested on: SF-295 CNS
UACC-257 melanoma = tested on: UACC-257 melanoma
UO-31 renal = tested on: UO-31 renal
NCI-H226 lung = tested on: NCI-H226 lung
SF-268 CNS = tested on: SF-268 CNS
M14 melanoma = tested on: M14 melanoma
HCC-2998 colon = tested on: HCC-2998 colon
M19-MEL melanoma = tested on: M19-MEL melanoma
OVCAR-8 ovarian = tested on: OVCAR-8 ovarian
KM12 colon = tested on: KM12 colon
SNB-75 CNS = tested on: SNB-75 CNS
SW-620 colon = tested on: SW-620 colon
HCT-116 colon = tested on: HCT-116 colon
CCRF-CEM leukemia = tested on: CCRF-CEM leukemia
SK-OV-3 ovarian = tested on: SK-OV-3 ovarian
IGROV1 ovarian = tested on: IGROV1 ovarian
HOP-62 NSCLC = tested on: HOP-62 NSCLC
NCI-H522 lung = tested on: NCI-H522 lung
K-562 leukemia = tested on: K-562 leukemia
UACC-62 melanoma = tested on: UACC-62 melanoma
SF-539 CNS = tested on: SF-539 CNS
HOP-18 NSCLC = tested on: HOP-18 NSCLC
OVCAR-3 ovarian = tested on: OVCAR-3 ovarian
TK-10 renal = tested on: TK-10 renal
HL-60(TB) leukemia = tested on: HL-60(TB) leukemia
SK-MEL-28 melanoma = tested on: SK-MEL-28 melanoma
DMS 114 small cell lung = tested on: DMS 114 small cell lung
RXF 393 renal = tested on: RXF 393 renal
LOX IMVI melanoma = tested on: LOX IMVI melanoma
RPMI-8226 leukemia = tested on: RPMI-8226 leukemia
XF 498 CNS = tested on: XF 498 CNS
A498 renal = tested on: A498 renal

Cc1ccc(C)c2sc3cc(=O)ccc-3nc12
TGI (OVCAR-5 ovarian): 74.1 µM
TGI (OVCAR-4 ovarian): 48.1 µM
TGI (ACHN renal): > 100 µM
TGI (LXFL 529 NSCLC): > 100 µM
TGI (RXF-631 renal): > 100 µM
TGI (A549 NSCLC): > 100 µM
TGI (DMS 273 small cell lung): > 100 µM
TGI (SNB-78 CNS): > 100 µM
TGI (HCT-15 colon): > 100 µM
TGI (EKVX NSCLC): > 100 µM
TGI (SN12C renal): > 100 µM
TGI (U251 CNS): > 100 µM
TGI (SR leukemia): > 100 µM
TGI (MOLT-4 leukemia): 69.6 µM
TGI (NCI-H460 lung): > 100 µM
TGI (SK-MEL-5 melanoma): 31 µM
TGI (NCI-H23 lung): > 100 µM
TGI (HT29 colon): > 100 µM
TGI (DLD-1 colon): > 100 µM
TGI (786-0 renal): > 100 µM
TGI (SNB-19 CNS): > 100 µM
TGI (HOP-92 NSCLC): 83.3 µM
TGI (COLO 205 colon): > 100 µM
TGI (CAKI-1 renal): 70.5 µM
TGI (KM20L2 colon): > 100 µM
TGI (SK-MEL-2 melanoma): > 100 µM
TGI (SF-295 CNS): > 100 µM
TGI (UACC-257 melanoma): > 100 µM
TGI (UO-31 renal): > 100 µM
TGI (NCI-H226 lung): > 100 µM
TGI (SF-268 CNS): > 100 µM
TGI (M14 melanoma): 42.7 µM
TGI (HCC-2998 colon): > 100 µM
TGI (M19-MEL melanoma): 31.1 µM
TGI (OVCAR-8 ovarian): > 100 µM
TGI (KM12 colon): > 100 µM
TGI (SNB-75 CNS): > 100 µM
TGI (SW-620 colon): > 100 µM
TGI (HCT-116 colon): > 100 µM
TGI (CCRF-CEM leukemia): 70.3 µM
TGI (SK-OV-3 ovarian): > 100 µM
TGI (IGROV1 ovarian): > 100 µM
TGI (HOP-62 NSCLC): > 100 µM
TGI (NCI-H522 lung): 67.6 µM
TGI (K-562 leukemia): 79.6 µM
TGI (UACC-62 melanoma): 33.6 µM
TGI (SF-539 CNS): > 100 µM
TGI (HOP-18 NSCLC): > 100 µM
TGI (OVCAR-3 ovarian): > 100 µM
TGI (TK-10 renal): 66.8 µM
TGI (HL-60(TB) leukemia): 38.8 µM
TGI (SK-MEL-28 melanoma): > 100 µM
TGI (DMS 114 small cell lung): > 100 µM

c1ccc(CN(Cc2ccccn2)Cn2cccn2)nc1
TGI (OVCAR-4 ovarian): > 100 µM
TGI (ACHN renal): > 100 µM
TGI (RXF-631 renal): > 100 µM
TGI (A549 NSCLC): > 100 µM
TGI (DMS 273 small cell lung): > 100 µM
TGI (SNB-78 CNS): > 100 µM
TGI (HCT-15 colon): 78.9 µM
TGI (EKVX NSCLC): > 100 µM
TGI (SN12C renal): > 100 µM
TGI (U251 CNS): > 100 µM
TGI (SR leukemia): > 100 µM
TGI (MOLT-4 leukemia): > 100 µM
TGI (NCI-H460 lung): > 100 µM
TGI (SK-MEL-5 melanoma): > 100 µM
TGI (NCI-H23 lung): > 100 µM
TGI (RXF 393 renal): > 100 µM
TGI (DLD-1 colon): > 100 µM
TGI (786-0 renal): > 100 µM
TGI (SNB-19 CNS): > 100 µM
TGI (HOP-92 NSCLC): > 100 µM
TGI (COLO 205 colon): > 100 µM
TGI (CAKI-1 renal): > 100 µM
TGI (KM20L2 colon): > 100 µM
TGI (SK-MEL-2 melanoma): > 100 µM
TGI (SF-295 CNS): > 100 µM
TGI (UACC-257 melanoma): > 100 µM
TGI (UO-31 renal): > 100 µM
TGI (LOX IMVI melanoma): > 100 µM
TGI (SF-268 CNS): > 100 µM
TGI (M14 melanoma): > 100 µM
TGI (M19-MEL melanoma): > 100 µM
TGI (OVCAR-8 ovarian): > 100 µM
TGI (KM12 colon): > 100 µM
TGI (SNB-75 CNS): > 100 µM
TGI (SW-620 colon): > 100 µM
TGI (HCT-116 colon): 63.7 µM
TGI (CCRF-CEM leukemia): > 100 µM
TGI (SK-OV-3 ovarian): > 100 µM
TGI (RPMI-8226 leukemia): 75.6 µM
TGI (XF 498 CNS): > 100 µM
TGI (HOP-62 NSCLC): > 100 µM
TGI (NCI-H522 lung): > 100 µM
TGI (K-562 leukemia): > 100 µM
TGI (UACC-62 melanoma): 44.4 µM
TGI (A498 renal): > 100 µM
TGI (SF-539 CNS): > 100 µM
TGI (OVCAR-3 ovarian): > 100 µM
TGI (TK-10 renal): > 100 µM
TGI (HL-60(TB) leukemia): 55.8 µM
TGI (SK-MEL-28 melanoma): > 100 µM
TGI (DMS 114 small cell lung): 54.6 µM
